These results are taken from patent publication US6562843B1, “Substituted 3-pyridyl-4-arylpyrroles, and related therapeutic and prophylactic methods” (Ortho-McNeil Pharmaceutical, Inc., priority 1999, dated 2003).

Structures are written as SMILES.

For one experiment, the system named is TNF-α production. The experiment is described as follows: In-Vitro Whole Cell Assay for TNF-α Inhibition (LPS-stimulated PBMC, ELISA). It is filed as cell-based. Conditions: LPS overnight, TNF-α by ELISA. The protocol: B. In-Vitro Whole Cell Assay for TNF-α Inhibition
Freshly obtained venous blood was anticoagulated with heparin, diluted with an equal volume of phosphate buffered saline (“PBS”) and placed in a sterile tube or other container. Aliquots (30 mL) of this mixture were transferred to centrifuge tubes which were underlaid with Ficoll-Hypaque (15 mL). The prepared tubes were centrifuged at 400×g, without braking, for 30 min at room temperature. Approximately ½ to ⅔ of the platelet layer above the mononuclear cell band was removed with a pipette. The majority of the mononuclear cell layer was carefully removed using a pipette and these PBMC's were diluted with PBS and spun at 600×g for 15 min. The resulting PBMC's were washed with another portion of PBS and spun at 400×g for 10 min at room temperature. The recovered pellets were diluted in low endotoxin RPMI/1% FCS culture medium, and gave a cell concentration of 0.5-2.0×10^6 PMBC/mL. A small volume of the suspension was removed for counting on a hemocytometer and the remaining preparation was centrifuged at 200×g for 15 min at room temperature. The recovered pelleted PMBC's were resuspended in RPMI/1% FCS to a concentration of 1.67×10^6/mL.
To run the assay, the PBMC suspension (180 μL) was transferred to duplicate wells of a 96-well flat-bottom microtiter plate and incubated for 1 h at 37° C. A solution of test compound (10 μL: prepared at 20× the desired final concentration) was added to each well and the plate was incubated for 1 h at 37° C. A solution (10 μL) of LPS in RPMI/1% FCS (200 ng/mL) was added and the wells were incubated overnight at 37° C. The supernate (100 μL) was removed from each well and diluted with RPMI/1% FCS (400 μL). The samples were analyzed for TNF-α using a commercial ELISA kit (Genzyme).
The compounds were tested for their ability to inhibit TNF-α production. The IC50 nM results are listed for the indicated compounds.
For orientation: ELISA stands for enzyme-linked immunosorbent assay.

Experiment [1] has as its target T1, purified recombinant p38 (6×His-p38 expressed in E.coli) (Homo sapiens, UniProt Q16539).
T1 construct: 6xHis; made in house; host or cells: E. coli
The experiment is described as follows: p38 Inhibition In-Vitro Enzyme Assay. The experiment is classed as biochemical. As to conditions: myelin basic protein substrate, 33P-ATP; for inhibition at 10 µM: read-out: % p38 inhib @ 10 μM. On the procedure: A. p38 Inhibition In-Vitro Enzyme Assay
A solution (38 μL) of purified recombinant p38 (6×His-p38 expressed in E.coli), myelin basic protein substrate (determined empirically), and a buffer of pH 7.5 (Hepes:25 mM, MgCl2:10 mM, MnCl2:10 mM) were added to 92 wells of a 96-well round bottom polypropylene plate. The amount of enzyme was determined empirically based on the linear range of the assay and the acceptable signal to noise ratio. The remaining wells were used for control “CTRL”) and background (“BKG”). The CTRL was prepared with the enzyme, substrate buffer and 2% DMSO, and the BKG was prepared with substrate buffer and 2% DMSO.
A solution (12 μL) of the test compound in DMSO was added to the testing wells. […] The ATP/^33P-ATP solution (10 μL containing 50 μM unlabeled ATP and 1 μCi ^33P-ATP) was added to all wells and the completed plates were mixed and incubated at 30° C. for 30 min. Ice-cold 50% TCA/10 mM sodium phosphate (60 μL) was added to each well and the plates were kept on ice for 15 min. The contents of each well were transferred to the wells of a 96-well filterplate (Millipore, MultiScreen-DP) and the filterplate was placed on a vacuum manifold fitted with a waste collection tray. The wells were washed five times with 10% TCA/10 mM sodium phosphate (200 μL) under vacuum. MicroScint-20 scintillant was added, and the plates were sealed using Topseal-S sheets and counted in a Packard TopCount scintillation counter using a ^33P liquid program with color quench correction, where the output is in color quench-corrected cpm. The % inhibition of each test compound as shown in Table 2 was calculated by the following formula: % inhibition=[1−(sample−BKG)/(CTRL−BKG)]×100.
[…] In addition, the IC50 was calculated for some compounds using the Deltagraph 4-parameter curve-fitting program.

The subject of experiment [2] is LPS-induced TNF-α production. The experiment is described as follows: In Vivo Rodent Assay for Inhibition of TNF-α Production (mice). Conditions: oral dosing, LPS 1 mg/kg i.p., serum TNF-α. Also on record: species or system Mice (BALB/cJ females). On the procedure: C. In Vivo Rodent Assay for Inhibition of TNF-α Production
Mice (BALB/cJ females, Jackson Laboratories) or rats (Lewis males, Charles River) were fasted for 30 min prior to oral dosing with 5-10 mL/kg of test compound at 5-50 mg/kg. Thirty minutes after dosing, the animals were injected intraperitoneally with LPS at 1 mg/kg and returned to their cages for 1 h. Animals were anesthetized by CO2, exsanguinated by cardiac puncture and whole blood collected (0.1-0.7 mL). The blood was allowed to clot and serum was transferred to a centrifuge tube. This sample was centrifuged, and serum was collected, aliquoted and frozen at −80° C. Samples were tested by commercial ELISA's for TNF-α (Endogen for mouse TNF-α and Biosource for rat TNF-α).

T1 sequence (Q16539 whole entry): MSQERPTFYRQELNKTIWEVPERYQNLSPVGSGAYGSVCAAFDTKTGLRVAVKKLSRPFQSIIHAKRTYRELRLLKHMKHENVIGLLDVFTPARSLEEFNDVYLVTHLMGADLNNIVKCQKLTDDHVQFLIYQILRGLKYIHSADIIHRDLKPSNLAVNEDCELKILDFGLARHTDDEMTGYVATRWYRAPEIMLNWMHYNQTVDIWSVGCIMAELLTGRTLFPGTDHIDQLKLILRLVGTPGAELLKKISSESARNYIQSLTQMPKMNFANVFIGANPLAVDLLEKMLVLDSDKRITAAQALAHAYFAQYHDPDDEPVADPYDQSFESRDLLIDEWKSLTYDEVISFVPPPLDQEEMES

Broadly, the IC50 is the concentration needed to halve the response being measured. Low readings indicate greater potency, high ones weaker potency. The compound `O=[N+]([O-])c1ccc(-n2cc(-c3ccncc3)c(-c3ccc(F)c(F)c3)c2)cc1` [compound 3] had an IC50 in the experiment on TNF-α production of 2 nM. Further, the “% p38 inhib @ 10 μM” value in experiment [1] is 80%. In experiment [2] (10 mg/kg), the “TNF-α % Inhibition Mouse” value is 81%.
In the experiment on TNF-α production, `COc1cccc(-c2cn(C)cc2-c2ccncc2)c1` [compound 14] gave an IC50 of 55 nM. The “% p38 inhib @ 10 μM” value in experiment [1] came to 43%. In addition, the “TNF-α % Inhibition Mouse” value in experiment [2] (10 mg/kg) is 41%; in experiment [2] (25 mg/kg), 71%.
`COc1cccc(-c2cn(-c3ccc(C#N)cc3)cc2-c2ccncc2)c1` [compound 18]: the IC50 with TNF-α production worked out at 15 nM. Also, the “% p38 inhib @ 10 μM” value in experiment [1] came out at 23%. Further, the results for the “TNF-α % Inhibition Mouse” value in experiment [2] (10 mg/kg) and in experiment [2] (25 mg/kg) were 24% and 60%, respectively.
By inhibition in vivo is commonly meant how much of the control response was suppressed. Higher therefore signals strong suppression. As for `Fc1ccc(-c2c[nH]c(CCCc3ccccc3)c2-c2ccncc2)cc1` [compound 28, 4-(4-Fluorophenyl)-2-(3-phenylpropyl)-3-(4-pyridyl)pyrrole], in the experiment on TNF-α production, the IC50 came to 3.5 nM. Further, the inhibition at 10 µM in experiment [1] was found to be 49%. In experiment [2] (Mus musculus, 1 h, 10 mg/kg), this compound had an inhibition in vivo at 10 mg/kg of 10%. This compound had an inhibition in vivo at 25 mg/kg in experiment [2] (Mus musculus, 1 h, 25 mg/kg) of 10%.
`O=[N+]([O-])c1ccc(-n2cc(-c3ccncc3)c(-c3ccc(F)cc3)c2)cc1` [compound 30] showed an IC50 in the experiment on TNF-α production of 2 nM. For the same compound, in experiment [1], the “% p38 inhib @ 10 μM” value worked out at 70%. The “TNF-α % Inhibition Mouse” value in experiment [2] (25 mg/kg) came out at 53%.
Turning to `O=[N+]([O-])c1ccc(-n2cc(-c3ccc(F)cc3)c(-c3ccncc3)c2CCCc2ccccc2)cc1` [compound 31, 4-(4-Fluorophenyl)-1-(4-nitrophenyl)-2-(3-phenylpropyl)-3-(4-pyridyl)pyrrole], the IC50 in the experiment with TNF-α production stood at 15 nM. The inhibition at 10 µM in experiment [1] turned out to be 67%. 10 mg/kg produced 47% inhibition in vivo in experiment [2] (Mus musculus, 1 h, 10 mg/kg).
As to `CC(=O)Nc1ccc(-n2cc(-c3ccc(F)cc3)c(-c3ccncc3)c2CCCc2ccccc2)cc1` [compound 32, 1-(4-Acetoaminophenyl)-4-(4-fluorophenyl)-2-(3-phenylpropyl)-3-(4-pyridyl)pyrrole], the IC50 in the experiment on TNF-α production turned out to be 5 nM. The inhibition at 10 µM in experiment [1] was 38%. Besides, testing at 10 mg/kg in experiment [2] (Mus musculus, 1 h, 10 mg/kg) gave an inhibition in vivo of 48%.
